Experimental data taken from patent US9192161B2, “Fungicidal combinations comprising a dithiino-tetracarboxamide fungicide” (BAYER INTELLECTUAL PROPERTY GMBH, priority 2011, dated 2015).

System: Venturia inaequalis
Experiment: Venturia test (apples)/preventive
Format: in vivo, Venturia inaequalis on apples
Settings: preventive spray on young apple plants, evaluated 10 days after inoculation
Procedure: Venturia Test (Apples)/Preventive
• Solvent: 24.5 parts by weight of acetone • 24.5 parts by weight of dimethylacetamide • Emulsifier: 1 part by weight of alkylaryl polyglycol ether
To produce a suitable preparation of active compound, 1 part by weight of active compound is mixed with the stated amounts of solvent and emulsifier, and the concentrate is diluted with water to the desired concentration. To test for preventive activity, young plants are sprayed with the preparation of active compound at the stated rate of application. After the spray coating has dried on, the plants are inoculated with an aqueous conidia suspension of the causal agent of apple scab (Venturia inaequalis) and then remain for 1 day in an incubation cabinet at approximately 20° C. and a relative atmospheric humidity of 100%. The plants are then placed in a greenhouse at approximately 21° C. and a relative atmospheric humidity of approximately 90%. The test is evaluated 10 days after the inoculation. 0% means an efficacy which corresponds to that of the untreated control, while an efficacy of 100% means that no disease is observed.

Row | SMILES | Efficacy in % found (20 ppm a.i.) [%] | Efficacy in % found (40 ppm a.i.) [%] | Efficacy in % found (0.4 ppm a.i.) [%]
1 | Cn1c(=O)c2sc3c(=O)n(C)c(=O)c3sc2c1=O [(I-1), 2,6-dimethyl-1H,5H-[1,4]dithiino[2,3-c:5,6-c′]dipyrrole-1,3,5,7(2H,6H)-tetrone] | 46 | 65 | –
2 | COC(c1ccc(Cl)cc1Cl)C(C)NC(=O)c1cn(C)nc1C(F)F (stereo not drawn) [(10), 3-(difluoromethyl)-1-methyl-1H-pyrazole-4-carboxylic acid [2-(2,4-dichlorophenyl)-2-methoxy-1-methyl-ethyl]-amide] | – | – | 18
